PMC4220016, “The binding characteristics and orientation of a novel radioligand with distinct properties at 5-HT3A and 5-HT3AB receptors” (Neuropharmacology, 2014)
Read-outs that look alike come from different tables or passages of the source.

Experiments:
5-HT3A receptors [1] = molecular target: T1, 5-HT3A receptors (Homo sapiens, UniProt P46098)
T1 sequence (P46098 24-478): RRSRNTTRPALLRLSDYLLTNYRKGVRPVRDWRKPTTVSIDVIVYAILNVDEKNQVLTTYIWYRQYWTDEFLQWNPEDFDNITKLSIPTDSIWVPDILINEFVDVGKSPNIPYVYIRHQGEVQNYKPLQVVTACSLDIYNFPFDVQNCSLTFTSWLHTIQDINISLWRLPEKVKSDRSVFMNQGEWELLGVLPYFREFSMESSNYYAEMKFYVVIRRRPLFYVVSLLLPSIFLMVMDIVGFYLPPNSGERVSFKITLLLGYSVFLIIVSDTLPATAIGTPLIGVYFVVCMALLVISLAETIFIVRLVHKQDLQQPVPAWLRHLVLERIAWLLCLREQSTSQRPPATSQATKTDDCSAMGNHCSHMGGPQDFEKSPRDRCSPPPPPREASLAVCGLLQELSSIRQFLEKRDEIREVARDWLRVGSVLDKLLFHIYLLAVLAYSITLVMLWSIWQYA

5-HT3A receptors [2] = molecular target: T1, 5-HT3A receptors; experiment: biochemical
5-HT3AB receptors [3] = molecular target: T2, 5-HT3AB receptors (Homo sapiens, UniProt O95264+P46098); experiment: biochemical
T2 sequence (P46098 24-478): T1 sequence (P46098 24-478)
T2 sequence (O95264 22-441): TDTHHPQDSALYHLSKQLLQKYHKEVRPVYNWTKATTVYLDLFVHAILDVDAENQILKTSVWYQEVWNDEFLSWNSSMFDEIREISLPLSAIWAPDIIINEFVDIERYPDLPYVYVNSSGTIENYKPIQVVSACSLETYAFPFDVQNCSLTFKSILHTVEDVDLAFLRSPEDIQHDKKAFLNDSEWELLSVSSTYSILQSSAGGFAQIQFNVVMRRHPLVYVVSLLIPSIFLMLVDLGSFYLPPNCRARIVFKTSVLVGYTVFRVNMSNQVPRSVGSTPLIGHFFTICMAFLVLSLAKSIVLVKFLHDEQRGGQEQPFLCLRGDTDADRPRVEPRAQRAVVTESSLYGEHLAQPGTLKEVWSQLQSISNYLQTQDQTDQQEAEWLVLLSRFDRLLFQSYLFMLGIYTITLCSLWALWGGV

5-HT3A receptors [4] = molecular target: T1, 5-HT3A receptors; experiment: Competition binding with [^3H]VUF10166 at 5-HT3A receptors
5-HT3AB receptors [5] = molecular target: T2, 5-HT3AB receptors; experiment: Competition binding with [^3H]VUF10166 at 5-HT3AB receptors
α7 nACh receptors = α7 nACh receptors (Homo sapiens, UniProt P36544); experiment: Saturation binding of [^3H]VUF10166 on α7 nACh receptors; settings: data not shown
Chain of α7 nACh receptors (P36544 23-502): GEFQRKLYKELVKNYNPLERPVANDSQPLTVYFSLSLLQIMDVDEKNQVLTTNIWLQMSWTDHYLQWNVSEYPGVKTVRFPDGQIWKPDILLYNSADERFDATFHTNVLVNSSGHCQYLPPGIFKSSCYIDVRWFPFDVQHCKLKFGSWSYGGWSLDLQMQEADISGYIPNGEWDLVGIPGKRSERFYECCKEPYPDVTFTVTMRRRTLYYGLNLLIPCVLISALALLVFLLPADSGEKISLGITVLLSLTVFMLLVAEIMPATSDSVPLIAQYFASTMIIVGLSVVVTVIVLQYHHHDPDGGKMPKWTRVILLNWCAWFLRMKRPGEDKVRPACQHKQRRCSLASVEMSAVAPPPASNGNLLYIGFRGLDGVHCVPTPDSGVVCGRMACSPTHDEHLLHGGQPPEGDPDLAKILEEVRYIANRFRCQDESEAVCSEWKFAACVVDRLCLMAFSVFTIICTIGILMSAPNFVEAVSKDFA

5-HT3A receptors [6] = molecular target: T1, 5-HT3A receptors; experiment: biochemical; type: binding; set-up: expressed in transfected cells; host or cells: HEK 293; settings: 5-HT3A

CN1CCC[C@H]1c1cccnc1 [Nicotine]
competition with [^3H]granisetron (in words) (5-HT3A receptors [1]): competed
IC50 (5-HT3A receptors [2]): 977 nM
IC50 (5-HT3AB receptors [3]): 275 nM
IC50 (5-HT3A receptors [4]): 155 nM
IC50 (5-HT3AB receptors [5]): 174 nM

CN1[C@@H]2CC[C@H]1C[C@@H](OC(=O)c1cc(Cl)cc(Cl)c1)C2 [MDL72222]
inhibition of specific [^3H]VUF10166 binding (in words) (5-HT3A receptors [4]): inhibited
inhibition of specific [^3H]VUF10166 binding (in words) (5-HT3AB receptors [5]): inhibited

O=C1C[C@@H]2OCC=C3CN4CC[C@]56c7ccccc7N1[C@H]5[C@H]2[C@H]3C[C@H]46 [Strychnine]
competition with [^3H]granisetron (in words) (5-HT3A receptors [1]): competed
IC50 (5-HT3A receptors [2]): 50100 nM
IC50 (5-HT3AB receptors [3]): 14100 nM
IC50 (5-HT3A receptors [4]): 1480 nM
IC50 (5-HT3AB receptors [5]): 550 nM

CC(C)(C)[C@]1(O)CC2OC(=O)CC23C(=O)OC2OC(=O)[C@H](O)C231 (stereo partly drawn) [Bilobalide]
inhibition of specific [^3H]VUF10166 binding (in words) (5-HT3A receptors [4]): not and unaffected
inhibition of specific [^3H]VUF10166 binding (in words) (5-HT3AB receptors [5]): not

c1ccc2nc(N3CCNCC3)ccc2c1 [Quipazine]
inhibition of specific [^3H]VUF10166 binding (in words) (5-HT3A receptors [4]; 5-HT3A): inhibited
inhibition of specific [^3H]VUF10166 binding (in words) (5-HT3AB receptors [5]; 5-HT3AB): inhibited

Picrotoxin
inhibition of specific [^3H]VUF10166 binding (in words) (5-HT3A receptors [4]): not and unaffected
inhibition of specific [^3H]VUF10166 binding (in words) (5-HT3AB receptors [5]): not

[3H]CN1CCN(c2nc3ccccc3nc2Cl)CC1 [[^3H]VUF10166, 2-chloro-3-(4-[^3H]methylpiperazin-1-yl)quinoxaline]
specific saturable binding (in words) (α7 nACh receptors): no specific saturable binding
non-specific binding (5-HT3A receptors [6]; non-specific binding determined with 2 mM quipazine): < 5%
Bmax (5-HT3A receptors [6]; paired samples): 2229 ± 158 fmol/mg
